Test results as given in publication PMC5943271, “Biosynthetic pathway for furanosteroid demethoxyviridin and identification of an unusual pregnane side-chain cleavage” (Nature Communications, 2018).
Read-outs that look alike come from different tables or passages of the source.

What was measured:
PI3K gamma kinase = PI3K gamma kinase (Homo sapiens, UniProt P48736); assay: In vitro PI3K gamma kinase assay (PI3-Kinase (human) HTRF Assay kit); type: biochemical; settings: for IC50: PI3K gamma, 10 μM PIP2, 10 μM ATP, room temperature 1 h, HTRF, two replicates, read-out: IC50 value, PI3K inhibitory activity
MCF-7 cells = assay: Cytotoxicity assay (CCK-8) against breast cancer cell line MCF-7; type: cell-based, human; settings: MCF-7, 40 μM, 48 h
[1] = set-up: method as in PMID 19523825; settings: cited from earlier work
[2] = Cytotoxicity assay (CCK-8) against breast cancer cell line MCF-7; type: cell-based, human; settings: human, MCF-7 breast cancer cells (ATCC HTB-22), MCF-7, 48 h

Sequence of PI3K gamma kinase (P48736 whole entry): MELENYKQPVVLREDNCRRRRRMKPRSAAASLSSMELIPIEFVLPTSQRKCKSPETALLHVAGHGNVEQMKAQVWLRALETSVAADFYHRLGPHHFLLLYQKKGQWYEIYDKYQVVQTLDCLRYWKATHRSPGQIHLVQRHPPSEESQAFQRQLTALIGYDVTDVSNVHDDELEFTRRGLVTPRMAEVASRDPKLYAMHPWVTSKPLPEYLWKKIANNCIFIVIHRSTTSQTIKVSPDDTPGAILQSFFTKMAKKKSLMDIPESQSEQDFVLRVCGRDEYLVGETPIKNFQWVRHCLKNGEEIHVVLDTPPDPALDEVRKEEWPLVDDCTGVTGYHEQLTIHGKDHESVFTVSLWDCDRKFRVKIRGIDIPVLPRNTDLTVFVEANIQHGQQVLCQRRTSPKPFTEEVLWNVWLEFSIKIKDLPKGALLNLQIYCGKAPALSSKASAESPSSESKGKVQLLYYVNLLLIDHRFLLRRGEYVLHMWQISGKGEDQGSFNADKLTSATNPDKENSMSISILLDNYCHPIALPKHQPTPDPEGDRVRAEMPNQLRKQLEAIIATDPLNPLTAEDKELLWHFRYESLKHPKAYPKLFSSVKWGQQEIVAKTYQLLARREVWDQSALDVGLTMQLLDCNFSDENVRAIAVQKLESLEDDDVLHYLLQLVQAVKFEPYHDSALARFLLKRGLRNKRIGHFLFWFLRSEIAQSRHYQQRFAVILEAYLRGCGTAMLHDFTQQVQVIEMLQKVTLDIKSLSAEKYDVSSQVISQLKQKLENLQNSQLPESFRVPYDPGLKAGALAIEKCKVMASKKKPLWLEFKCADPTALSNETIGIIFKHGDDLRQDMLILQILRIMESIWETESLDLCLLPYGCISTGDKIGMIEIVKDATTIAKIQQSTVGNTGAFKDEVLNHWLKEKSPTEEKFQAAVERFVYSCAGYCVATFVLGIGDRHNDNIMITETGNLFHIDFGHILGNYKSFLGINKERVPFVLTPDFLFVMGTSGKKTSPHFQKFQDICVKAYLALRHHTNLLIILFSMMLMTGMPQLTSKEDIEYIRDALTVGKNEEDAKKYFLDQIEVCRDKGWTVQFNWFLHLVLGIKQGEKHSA

melting point [°C]	Compound	IC50 (PI3K gamma kinase) [nM]	also measured
218.2 to 221.7	CC(=O)[C@H]1CC[C@H]2C3=C(CC[C@]12C)[C@@]1(C)CC[C@H](O)C2=C1[C@@](O)(OC2)C3=O	–	–
236.4 to 238.7	C[C@]12CC[C@H](O)c3coc(c31)C(=O)C1=C2C=C[C@]2(C)C(=O)CC[C@@H]12	–	–
187.1 to 189.6	C[C@]12CCC3=C(C(=O)c4occ5c4[C@]3(C)CC[C@@H]5O)[C@@H]1CC[C@@H]2O	–	–
–	C[C@@]12c3ccc4c(c3C(=O)c3occ(c31)C(=O)C[C@H]2O)CCC4=O [Compound 1, demethoxyviridin]	6.6	cytotoxicity against MCF-7 (in words) (MCF-7 cells): moderate cytotoxicity; stability in PBS and culture media (in words) [1]: instability
–	C[C@@]12c3ccc4c(c3C(=O)c3occ(c31)[C@@H](O)C[C@H]2O)CCC4=O [Compound 2, demethoxyviridiol]	1070	IC50 at 48 h ([2]; three replicates, read-out: IC50 value, cytotoxicity against MCF-7 (Supplementary Figure 9b)): 37300 nM
–	C[C@]12CCC(=O)c3coc(c31)C(=O)c1c2ccc2c1CCC2=O [Compound 3, dehydroxydemethoxyviridin]	167	–
–	C[C@]12CCC3=C(C(=O)c4occ5c4[C@]3(C)CCC5=O)[C@@H]1CC[C@@H]2O [Compound 7, (6bR,9S,9aS,11bR)-9-hydroxy-9a,11b-dimethyl-1,2,6b,7,8,9,9a,10,11,11b-decahydrocyclopenta[7,8]phenanthro[10,1-bc]furan-3,6-dione]	42.7	IC50 at 48 h ([2]; read-out: IC50 value, cytotoxicity against MCF-7): 15000 nM
–	CC(=O)O[C@H]1CC[C@H]2C3=C(CC[C@]12C)[C@@]1(C)CC[C@H](O)c2coc(c21)C3=O [Compound 9, (3S,6bR,9S,9aS,11bR)-3-hydroxy-9a,11b-dimethyl-6-oxo-1,2,3,6,6b,7,8,9,9a,10,11,11b-dodecahydrocyclopenta[7,8]phenanthro[10,1-bc]furan-9-yl acetate]	–	inhibitory effect on PI3K (in words) (PI3K gamma kinase; 10 μM sample, Fig. 8a): abolishes the activity
–	CC(=O)[C@H]1CC[C@H]2C3=C(CC[C@]12C)[C@@]1(C)CCC(=O)c2coc(c21)C3=O [Compound 10, virone]	2250	–
